Experimental data taken from PMC3681751, “Identification of a Novel Antimicrobial Peptide from Human Hepatitis B Virus Core Protein Arginine-Rich Domain (ARD)” (PLoS Pathogens, 2013).
Where two headings read alike, the source gives them in different places. Residues, ends and D or L forms follow the SMILES beside them.

Tests used:
[1] = system: K. pneumonia (ATCC 13884); assay type: cell-based, Klebsiella pneumoniae; details: 3 h at 37°C in phosphate buffer pH 7.2; triplicate
P. aeruginosa = assay: Effect of added LPS on bactericidal activity; assay type: cell-based, Pseudomonas aeruginosa; details: 2 µM peptide (1×MBC), LPS from P. aeruginosa or E. coli at 50 µg/ml, 3 hours, triplicates
Protocol: To determine whether LPS of Gram-negative bacteria could serve as a potential target of HBc147-183, LPS (0.05 to 50 µg/ml) from either P. aeruginosa or E. coli (Sigma) were incubated with both P. aeruginosa and 2 µM HBc147-183 for three hours, respectively. […] In addition, HBc147-183 preferentially bound to the LPS from P. aeruginosa, rather than that from E. coli. However, the addition of anti-LPS antibody (Genetex Co.) cannot sufficiently neutralize the bactericidal activity of HBc147-183 (Figure 5). […] Alternatively, HBc147-183 and the anti-LPS polyclonal antibody used here could bind predominantly to two different epitopes on the LPS.
Figure 5 Dose response effects of LPS and LPS antibody (triangle) on the bactericidal activity of HBc147-183. LPS from P. aeruginosa (square) and E. coli (diamond), and LPS antibody (triangle) were mixed with P. aeruginosa and HBc147-183 (1×MBC) for 3 hours. The bacteria were then plated on MH agar for the measurement of viability. Samples were measured in triplicates.

[2] = In vitro peptide-LPS binding on streptavidin beads (LAL test); parameters: species or system Pseudomonas aeruginosa; details: biotinylated peptide 0-2.5 µM on streptavidin beads, 5 µg/ml LPS; unbound LPS by LAL test; triplicates
Protocol: (§1) Several kinds of peptide-LPS or peptide-Lipid A binding assays were performed in this study: 1) Streptavidine-conjugated beads (Dynabeads MyOne Streptavidin T1, Invitrogen) were blocked by P. aeruginosa LPS (Sigma) at 37°C for 1.5 hour. After washing with PBST (PBS, pH 7.4 containing 0.1% (w/v) Tween-20), aliquots containing 250 pmol streptavidine-conjugated beads were incubated with a reaction mixture overnight at 4°C. The reaction mixture was prepared by mixing increasing amounts of biotinylated peptide HBc147-183 (0, 0.004, 0.02, 0.1, 0.5 and 2.5 µM) and 5 µg/ml P. aeruginosa LPS (Sigma) or 200 µg/ml E. coli lipid A (Sigma), at 37°C for 3 hour. After incubation overnight at 4°C, the reduction of LPS (or Lipid A) in the supernatants were measured by the Limulus Amebocyte Lysate (LAL) test (Charles River Endosafe) with an ELISA reader (Molecular Devices). The amount (EU/ml) of LPS was calculated according to the standard curve prepared with Endosafe Control Srandard Endotoxin. […] After trypsinization, the trypsin-released LPS in the supernatants were collected and measured by the Limulus Amebocyte Lysate (LAL) test. […] Plate-bound HBc147-183 was measured by streptavidin conjugated with HRP (1∶10000 dilution) for 1 hour at 37°C. […] The absorption was measured at 450 nm with a reference wavelength at 655 nm.

[3] = system: P. aeruginosa (ATCC 27853); assay type: cell-based, Pseudomonas aeruginosa
Summary of the method: (§2)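 Mid-log cultures grown in Mueller–Hinton broth were diluted to 10^6 CFU/ml in 10 mM sodium phosphate, 50 mM NaCl, pH 7.2, mixed with serially diluted HBc ARD peptides, and held 3 hours at 37°C without shaking. Survivors were plated on Mueller–Hinton agar overnight at 37°C to define MBC; triplicates.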

[4] = system: P. aeruginosa (ATCC 9027); assay type: cell-based, Pseudomonas aeruginosa
Summary of the method: as §2

HepG2 cells = assay: Peptide uptake into mammalian cells; assay type: cell-based, human; details: data not shown
Protocol: To set up CFSE cell proliferation assay, 293 cells (human kidney origin) and Vero cells (monkey kidney origin) were resuspended in PBS to a final concentration of 10^6 cells/ml, before incubation with 10 µM CFSE dye (CellTrace CFSE cell proliferation kit, Invitrogen) at 37°C for 10 min. To quench the staining, ice-old culture media were then added and incubated on ice for 5 min. Labeled cells were then pelleted and washed three times by fresh medium containing 10% FBS before seeding into six well plates at a density of 3.3×10^5cells/well. After 20 h, the medium was removed and incubated with fresh medium containing 5, 25 and 100 µM HBc 147-183 for one hour (FITC-labeled ARD peptide had been largely internalized in 10 minutes after the addition of ARD peptides to the medium of HepG2 cells). Forty-eight hours later, cells were harvested and analyzed by flow cytometry (FACSCanto, BD Bioscience).

[5] = In vitro peptide-Lipid A binding on streptavidin beads (LAL test); parameters: species or system Escherichia coli; details: biotinylated peptide 0-2.5 µM on streptavidin beads, 200 µg/ml lipid A, triplicates
Protocol: as §1

[6] = ampicillin-resistant strain, 3 h at 37°C in phosphate buffer pH 7.2, triplicate

Structure (SMILES): CC(C)[C@H](NC(=O)[C@@H](NC(=O)[C@@H](N)[C@@H](C)O)C(C)C)C(=O)N[C@@H](CCCNC(=N)N)C(=O)N[C@@H](CCCNC(=N)N)C(=O)N[C@@H](CCCNC(=N)N)C(=O)NCC(=O)N[C@@H](CCCNC(=N)N)C(=O)N[C@@H](CO)C(=O)N1CCC[C@H]1C(=O)N[C@@H](CCCNC(=N)N)C(=O)N[C@@H](CCCNC(=N)N)C(=O)N[C@@H](CCCNC(=N)N)C(=O)N[C@H](C(=O)N1CCC[C@H]1C(=O)N[C@@H](CO)C(=O)N1CCC[C@H]1C(=O)N[C@@H](CCCNC(=N)N)C(=O)N[C@@H](CCCNC(=N)N)C(=O)N[C@@H](CCCNC(=N)N)C(=O)N[C@@H](CCCNC(=N)N)C(=O)N[C@@H](CO)C(=O)N[C@@H](CCC(N)=O)C(=O)N[C@@H](CO)C(=O)N1CCC[C@H]1C(=O)N[C@@H](CCCNC(=N)N)C(=O)N[C@@H](CCCNC(=N)N)C(=O)N[C@@H](CCCNC(=N)N)C(=O)N[C@@H](CCCNC(=N)N)C(=O)N[C@@H](CO)C(=O)N[C@@H](CCC(N)=O)C(=O)N[C@@H](CO)C(=O)N[C@@H](CCCNC(=N)N)C(=O)N[C@@H](CCC(=O)O)C(=O)N[C@@H](CO)C(=O)N[C@@H](CCC(N)=O)C(=O)N[C@@H](CS)C(=O)O)[C@@H](C)O [HBc147-183] (H-TVVRRRGRSPRRRTPSPRRRRSQSPRRRRSQSRESQC-OH; N-terminus and C-terminus assumed)
- Antimicrobial activity, MBC [1]: 9.18 µg/mL
- Bactericidal activity in the presence of LPS (P. aeruginosa): significantly reduced
- Binding to LPS [2]: capable of binding to LPS
- Antimicrobial activity, MBC ([3]; ATCC 27853, 3 h, pH 7.2): 2 to 4 µM
- Antimicrobial activity, MBC [3, 6]: 9.18 to 18.36 µg/mL
- MBC against P. aeruginosa ([4]; ATCC 9027, 3 h): lower than 4 µM
- Antimicrobial activity, MBC ([4]; ATCC 9027, 3 h, pH 7.2): 2 µM
- Antimicrobial activity, MBC [4, 6]: 9.18 µg/mL
- Penetration through the cell membrane (HepG2 cells): can penetrate through the cell membrane
- Binding to Lipid A [5]: Lipid A can bind to HBc147-183 directly
